Experiments:
[1] = Ratio of the LC50 value to that of PBI-A.; type: functional
Cancer cell lines = assay: Ratio of the LC50 value to that of imino-APBI-A.; type: functional
[2] = COMPARE correlation coefficient of the LC50 response pattern with that of APBI-A.

SMILES | Ratio [1] | Ratio (Cancer cell lines) | also measured
CC1=C(N2CC2)C(=O)c2nc3n(c2C1=O)CCC3OC(N)=O (configuration not stated) | 0.84 | – | –
CCC(=O)OC1CCn2c1nc1c2C(=O)C(C)=C(NC(C)=O)C1=N (configuration not stated) | – | 0.26 | –
COCC(=O)C1CCn2c1nc1c2C(=O)C(C)=C(NC(C)=O)C1=O (configuration not stated) | – | – | COMPARE correlation coefficient [2]: 0.71
CC(=O)OC1CCn2c1nc1c2C(=O)C(C)=C(N2CC2)C1=O (configuration not stated) | 1 | – | –
COCC(=O)C1CCn2c1nc1c2C(=O)C(C)=C(NC(C)=O)C1=N (configuration not stated) | – | 0.52 | –
CC(=O)NC1=C(C)C(=O)c2c(nc3n2CCC3OC(=O)c2ccccc2)C1=N (configuration not stated) | – | 0.58 | –
CC(=O)NC1=C(C)C(=O)c2c(nc3n2CCC3O)C1=N (configuration not stated) | – | 0.09 | –
CC(=O)NC1=C(C)C(=O)c2c(nc3n2CCC3OC(C)=O)C1=O (configuration not stated) | – | – | COMPARE correlation coefficient [2]: 1
CCC(=O)OC1CCn2c1nc1c2C(=O)C(C)=C(N2CC2)C1=O (configuration not stated) | 0.72 | – | –
CC(=O)NC1=C(C)C(=O)c2c(nc3n2CCC3)C1=O | – | – | COMPARE correlation coefficient [2]: 0.7
CC1=C(N2CC2)C(=O)c2nc3n(c2C1=O)CCC3 | 0.71 | – | –
CC(=O)NC1=C(C)C(=O)c2c(nc3n2CCC3OC(C)=O)C1=N (configuration not stated) | – | 1 | –

Reference: ChEMBL document CHEMBL1128734, “Pyrrolo[1,2-a]benzimidazole-based quinones and iminoquinones. The role of the 3-substituent on cytotoxicity” (J Med Chem, 1995)
